Experimental data as given in PubChem BioAssay AID1919003 (Molecular Pharmacology Branch, DTP, NCI, 2023).
“And” between values parts separate entries of the source, which are not always exact repeats. Equal values may be shown once.

System: 786-0 complex spheroids with HUVEC/MSC, growth % test/control
Assay: Anticancer human tumor 786-0 cell line growth inhibition [AhR];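 also: compound exposure lasted seven days before the read-out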
Settings: for viability, T/C: stronger effect = lower value
Summary of the method: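 Complex tumor spheroids co-cultured with HUVEC and human MSC stroma; AhR antagonists tested in combination with standard-of-care and investigational agents. Top concentration at or near clinical Cmax (else 10 microM), half-log dilutions; growth expressed as percent test/control.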

[1] = curve of first compound, second compound 0.1 µM
[2] = curve of first compound, second compound 0.316 µM
[3] = curve of first compound, second compound 1 µM
[4] = curve of first compound, second compound 3.16 µM
[5] = curve of first compound, second compound 10 µM
[6] = second compound 0.1 µM, first compound 0.0316 µM
[7] = second compound 0.1 µM, first compound 0.1 µM
[8] = second compound 0.316 µM, first compound 0.0316 µM
[9] = second compound 0.316 µM, first compound 0.1 µM
[10] = second compound 1 µM, first compound 0.0316 µM
[11] = second compound 1 µM, first compound 0.1 µM
[12] = second compound 3.16 µM, first compound 0.0316 µM
[13] = second compound 3.16 µM, first compound 0.1 µM
[14] = second compound 10 µM, first compound 0.0316 µM
[15] = second compound 10 µM, first compound 0.1 µM

CC(C)c1c(-c2ccccc2)nc2c(C#N)c[nH]n2c1=O
viability, T/C (compound 0.0316 µM): 101% and 108% and 93.8%
viability, T/C (compound 0.1 µM): 106% and 99.9% and 109%
viability, T/C (compound 0.316 µM): 101% and 103% and 108%
viability, T/C (compound 1 µM): 105% and 101% and 100%
viability, T/C (compound 3.16 µM): 97.5% and 110% and 105%
viability, T/C (compound 10 µM): 99% and 98% and 97.1%
IC50 (curve of compound): > 10 µM

Cn1ncnc1C1c2n[nH]c(=O)c3cc(F)cc(c23)NC1c1ccc(F)cc1 (configuration not stated) + CC(CO)NC(=O)c1cc(-c2ccc(Cl)cc2)nn(-c2cnn(C)c2)c1=O
IC50 [1]: > 0.1 µM
IC50 [2]: > 0.1 µM
IC50 [3]: > 0.1 µM
IC50 [4]: > 0.1 µM
IC50 [5]: > 0.1 µM
viability, T/C (second compound 0.1 µM, first compound 0.000316 µM): 105%
viability, T/C (second compound 0.1 µM, first compound 0.001 µM): 97.4%
viability, T/C (second compound 0.1 µM, first compound 0.00316 µM): 95%
viability, T/C (second compound 0.1 µM, first compound 0.01 µM): 99.6%
viability, T/C [6]: 113%
viability, T/C [7]: 98.8%
viability, T/C (second compound 0.316 µM, first compound 0.000316 µM): 101%
viability, T/C (second compound 0.316 µM, first compound 0.001 µM): 105%
viability, T/C (second compound 0.316 µM, first compound 0.00316 µM): 97.8%
viability, T/C (second compound 0.316 µM, first compound 0.01 µM): 98.2%
viability, T/C [8]: 109%
viability, T/C [9]: 98.7%
viability, T/C (second compound 1 µM, first compound 0.000316 µM): 99.3%
viability, T/C (second compound 1 µM, first compound 0.001 µM): 107%
viability, T/C (second compound 1 µM, first compound 0.00316 µM): 105%
viability, T/C (second compound 1 µM, first compound 0.01 µM): 110%
viability, T/C [10]: 107%
viability, T/C [11]: 99.3%
viability, T/C (second compound 3.16 µM, first compound 0.000316 µM): 107%
viability, T/C (second compound 3.16 µM, first compound 0.001 µM): 102%
viability, T/C (second compound 3.16 µM, first compound 0.00316 µM): 99.1%
viability, T/C (second compound 3.16 µM, first compound 0.01 µM): 111%
viability, T/C [12]: 100%
viability, T/C [13]: 102%
viability, T/C (second compound 10 µM, first compound 0.000316 µM): 114%
viability, T/C (second compound 10 µM, first compound 0.001 µM): 118%
viability, T/C (second compound 10 µM, first compound 0.00316 µM): 110%
viability, T/C (second compound 10 µM, first compound 0.01 µM): 111%
viability, T/C [14]: 110%
viability, T/C [15]: 110%

O=C(C=Cc1cccc(S(=O)(=O)Nc2ccccc2)c1)NO + CC(CO)NC(=O)c1cc(-c2ccc(Cl)cc2)nn(-c2cnn(C)c2)c1=O
IC50 [1]: 6.02 µM
IC50 [2]: 5.21 µM
IC50 [3]: 5.51 µM
IC50 [4]: 4.85 µM
IC50 [5]: 4.71 µM
viability, T/C [6]: 102%
viability, T/C [7]: 106%
viability, T/C (second compound 0.1 µM, first compound 0.316 µM): 97.2%
viability, T/C (second compound 0.1 µM, first compound 1 µM): 107%
viability, T/C (second compound 0.1 µM, first compound 3.16 µM): 93.8%
viability, T/C (second compound 0.1 µM, first compound 10 µM): 15.2%
viability, T/C [8]: 104%
viability, T/C [9]: 101%
viability, T/C (second compound 0.316 µM, first compound 0.316 µM): 111%
viability, T/C (second compound 0.316 µM, first compound 1 µM): 110%
viability, T/C (second compound 0.316 µM, first compound 3.16 µM): 79%
viability, T/C (second compound 0.316 µM, first compound 10 µM): 12%
viability, T/C [10]: 100%
viability, T/C [11]: 104%
viability, T/C (second compound 1 µM, first compound 0.316 µM): 104%
viability, T/C (second compound 1 µM, first compound 1 µM): 105%
viability, T/C (second compound 1 µM, first compound 3.16 µM): 84.7%
viability, T/C (second compound 1 µM, first compound 10 µM): 12.5%
viability, T/C [12]: 103%
viability, T/C [13]: 102%
viability, T/C (second compound 3.16 µM, first compound 0.316 µM): 103%
viability, T/C (second compound 3.16 µM, first compound 1 µM): 101%
viability, T/C (second compound 3.16 µM, first compound 3.16 µM): 73.6%
viability, T/C (second compound 3.16 µM, first compound 10 µM): 10%
viability, T/C [14]: 109%
viability, T/C [15]: 108%
viability, T/C (second compound 10 µM, first compound 0.316 µM): 106%
viability, T/C (second compound 10 µM, first compound 1 µM): 94.8%
viability, T/C (second compound 10 µM, first compound 3.16 µM): 72.6%
viability, T/C (second compound 10 µM, first compound 10 µM): 8.46%
